Results: patent US20250032580A1, “USE OF ADNF POLYPEPTIDES IN THERAPY” (RAMOT AT TEL-AVIV UNIVERSITY LTD., priority 2021, published 2025)

System: SHANK3 mice
Test: Eubacteriaceae (EubV3) microbiota
Assay type: in vivo, mouse
Settings: data not shown

## CC[C@H](C)[C@H](NC(=O)[C@H](CO)NC(=O)[C@@H](NC(=O)[C@@H]1CCCN1C(=O)[C@H](C)NC(=O)[C@@H](N)CC(N)=O)C(C)C)C(=O)N1CCC[C@H]1C(=O)N[C@@H](CCC(N)=O)C(=O)O [NAP, NAPVSIPQ]
  EubV3 trend to change as a consequence of the SHANK3 mutation: this trend was not observed in the treated mice
